What was measured:
Format in all cases: functional
SW480 = assay: Inhibitory activity against SW480 cell line; inactive; conditions: Homo sapiens, read-out: ID50 (the source's name)
PLC = assay: Inhibitory activity against PLC cell line; inactive; conditions: Homo sapiens, read-out: ID50 (the source's name)
A549 = assay: Inhibitory activity against A549 cell line; inactive; conditions: Homo sapiens, read-out: ID50 (the source's name)
KB = assay: Inhibitory activity against protein linked DNA breaks in KB cells at 25 ug/mL after 1 hour; conditions: Homo sapiens
BT-549 = assay: Inhibitory activity against BT549 cell line; inactive; conditions: Homo sapiens, read-out: ID50 (the source's name)

| Structure (SMILES) | IC50 (SW480) | IC50 (PLC) | IC50 (A549) | inhibition at 25 µg/mL (KB) | IC50 (BT-549) |
| --- | --- | --- | --- | --- | --- |
| CC[C@@]1(O)C(=O)OCc2c1cc1n(c2=O)[C@H](CO)c2cc3ccccc3nc2-1 | > 5 µM | > 5 µM | > 5 µM | 20.4% | > 5 µM |
| CC[C@@]1(O)C(=O)OCc2c1cc1n(c2=O)C(CO)(CO)c2cc3ccccc3nc2-1 | > 5 µM | > 5 µM | > 5 µM | 0% | > 5 µM |
| CC[C@@]1(O)C(=O)OCc2c1cc1n(c2=O)[C@H](C(=O)c2cc(OC)c(OC)c(OC)c2)c2cc3ccccc3nc2-1 | > 5 µM | > 5 µM | > 5 µM | 0% | > 5 µM |
| CC[C@@]1(O)C(=O)OCc2c1cc1n(c2=O)[C@@H](CO)c2cc3ccccc3nc2-1 | > 5 µM | > 5 µM | > 5 µM | 8.7% | > 5 µM |
| CC[C@@]1(O)C(=O)OCc2c1cc1n(c2=O)Cc2cc3ccccc3nc2-1 [CAMPTOTHECIN] | – | – | – | 100% | – |
| CC[C@@]1(O)C(=O)OCc2c1cc1n(c2=O)Cc2c-1nc1ccccc1c2CO | – | – | – | 97.6% | – |
| CC[C@@]1(O)C(=O)OCc2c1cc1n(c2=O)Cc2c-1nc1ccccc1c2C=O | – | – | – | 107% | – |
